Assays:
[1] = molecular target: T1, ATP-binding cassette sub-family C member 4 (Homo sapiens, UniProt O15439); assay: TP_TRANSPORTER: inhibition of E217betaG uptake in membrane vesicles from MRP4-expressing HEK-293 cells; type: functional, cell membranes, HEK293, Membrane vesicle
T1 sequence (O15439 whole entry): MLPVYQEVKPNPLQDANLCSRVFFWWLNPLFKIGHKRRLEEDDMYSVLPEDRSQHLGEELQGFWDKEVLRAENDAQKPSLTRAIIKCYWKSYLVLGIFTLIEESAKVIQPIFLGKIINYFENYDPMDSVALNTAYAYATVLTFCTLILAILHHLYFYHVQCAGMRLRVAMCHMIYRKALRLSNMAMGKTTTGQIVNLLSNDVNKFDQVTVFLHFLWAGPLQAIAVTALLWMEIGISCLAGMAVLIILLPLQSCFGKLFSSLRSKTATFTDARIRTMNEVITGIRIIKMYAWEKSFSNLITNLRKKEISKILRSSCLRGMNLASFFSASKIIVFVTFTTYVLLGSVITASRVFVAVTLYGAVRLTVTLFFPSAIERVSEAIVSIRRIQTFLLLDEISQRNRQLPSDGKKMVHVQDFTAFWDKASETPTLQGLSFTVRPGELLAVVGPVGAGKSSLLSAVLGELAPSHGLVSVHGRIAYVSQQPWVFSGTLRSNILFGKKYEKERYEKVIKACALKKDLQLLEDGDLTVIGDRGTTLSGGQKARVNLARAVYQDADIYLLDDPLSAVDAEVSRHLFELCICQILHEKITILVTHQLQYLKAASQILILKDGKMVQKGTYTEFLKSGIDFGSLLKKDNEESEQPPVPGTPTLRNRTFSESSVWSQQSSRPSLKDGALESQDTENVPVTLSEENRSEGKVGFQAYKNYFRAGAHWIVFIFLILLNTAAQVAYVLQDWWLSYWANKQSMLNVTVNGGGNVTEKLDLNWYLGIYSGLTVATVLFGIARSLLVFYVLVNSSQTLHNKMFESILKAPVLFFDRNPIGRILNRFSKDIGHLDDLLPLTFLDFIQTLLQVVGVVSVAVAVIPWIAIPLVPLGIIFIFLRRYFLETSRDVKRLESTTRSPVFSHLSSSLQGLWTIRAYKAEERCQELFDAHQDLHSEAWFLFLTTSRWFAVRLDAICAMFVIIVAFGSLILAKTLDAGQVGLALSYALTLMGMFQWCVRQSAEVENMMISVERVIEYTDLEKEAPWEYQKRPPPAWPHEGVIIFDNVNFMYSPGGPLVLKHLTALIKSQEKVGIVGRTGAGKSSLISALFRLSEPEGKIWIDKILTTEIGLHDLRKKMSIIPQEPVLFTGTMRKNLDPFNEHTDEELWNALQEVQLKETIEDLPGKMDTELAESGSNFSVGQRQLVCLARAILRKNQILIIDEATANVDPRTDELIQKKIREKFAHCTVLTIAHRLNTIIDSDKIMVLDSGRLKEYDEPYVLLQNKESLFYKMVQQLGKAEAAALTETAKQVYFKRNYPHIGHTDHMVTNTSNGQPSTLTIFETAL

[2] = molecular target: T1, ATP-binding cassette sub-family C member 4; assay: TP_TRANSPORTER: inhibition of DHEAS in membrane vesicles from MRP4-expressing Sf9 cells; type: functional, cell membranes, Membrane vesicle
[3] = molecular target: T1, ATP-binding cassette sub-family C member 4; assay: TP_TRANSPORTER: inhibition of E217betaG uptake in membrane vesicles from MRP4-expressing Sf9 cells; type: functional, cell membranes, Membrane vesicle

SMILES | IC50 [1] | IC50 [2] | IC50 [3]
C[C@H](CCC(=O)NCCS(=O)(=O)O)C1CC[C@H]2[C@@H]3CC[C@@H]4C[C@H](OS(=O)(=O)O)CC[C@]4(C)[C@H]3CC[C@]12C (stereo partly drawn) | 10 µM | – | –
C[C@]12CC[C@@H]3c4ccc(OS(=O)(=O)O)cc4CC[C@H]3[C@@H]1CC[C@@H]2OS(=O)(=O)O [ESTRADIOL DISULFATE] | – | 0.2 µM | 2 µM
C[C@H](CCC(=O)NCC(=O)O)[C@H]1CC[C@H]2[C@@H]3CC[C@@H]4C[C@H](OS(=O)(=O)O)CC[C@]4(C)[C@H]3CC[C@]12C | 10 µM | – | –
C[C@H](CCC(=O)NCC(=O)O)[C@H]1CC[C@H]2[C@@H]3[C@H](O)C[C@@H]4C[C@H](O)CC[C@]4(C)[C@H]3C[C@H](O)[C@]12C [GLYCOCHOLIC ACID] | 400 µM | – | –
C[C@]12CC[C@H](O[C@@H]3O[C@H](C(=O)O)[C@@H](O)[C@H](O)[C@H]3O)CC1=CC[C@@H]1[C@@H]2CC[C@]2(C)C(=O)CC[C@@H]12 | – | 80 µM | 80 µM
C[C@H](CCC(=O)NCCS(=O)(=O)O)[C@H]1CC[C@H]2[C@@H]3CC[C@@H]4C[C@H](O)CC[C@]4(C)[C@H]3C[C@H](O)[C@]12C [TAURODEOXYCHOLIC ACID] | 60 µM | – | –
C[C@H](CCC(=O)O)[C@H]1CC[C@H]2[C@@H]3CC[C@@H]4C[C@H](OS(=O)(=O)O)CC[C@]4(C)[C@H]3CC[C@]12C | 10 µM | – | –
C[C@H](CCC(=O)NCCS(=O)(=O)O)[C@H]1CC[C@H]2[C@@H]3[C@H](O)C[C@@H]4C[C@H](O)CC[C@]4(C)[C@H]3CC[C@]12C [TAUROCHENODEOXYCHOLATE] | 55 µM | – | –
C[C@]12CC[C@@H]3c4ccc(OS(=O)(=O)O)cc4CC[C@H]3[C@@H]1CCC2=O [ESTRONE SULFURIC ACID] | – | 95 µM | 45 µM
C[C@]12CC[C@@H]3c4ccc(OS(=O)(=O)O)cc4CC[C@H]3[C@@H]1CC[C@H]2O | – | 70 µM | 50 µM
C[C@H](CCC(=O)NCCS(=O)(=O)O)[C@H]1CC[C@H]2[C@@H]3CC[C@@H]4C[C@H](O)CC[C@]4(C)[C@H]3CC[C@]12C [TAUROLITHOCHOLIC ACID] | 20 µM | – | –
C[C@]12CC[C@@H]3c4ccc(O[C@@H]5O[C@H](C(=O)O)[C@@H](O)[C@H](O)[C@H]5O)cc4CC[C@H]3[C@@H]1CC[C@@H]2O | – | 80 µM | 120 µM
C[C@]12CC[C@@H]3c4ccc(O)cc4CC[C@H]3[C@@H]1CC[C@@H]2O[C@@H]1O[C@H](C(=O)O)[C@@H](O)[C@H](O)[C@H]1O [ESTRADIOL 17B GLUCURONIDE] | – | 30 µM | –

From ChEMBL document CHEMBL2073753, “Steroid and bile acid conjugates are substrates of human multidrug-resistance protein (MRP) 4 (ATP-binding cassette C4)” (Biochem J, 2003)
